Columns and labels:
[1] = tested on: fibrosarcoma (HT-1080) cells; assay: MTT antiproliferative assay, HT-1080; type: cell-based, human; details: Homo sapiens, HT-1080, 24 h of drug exposure, mean±SD of 3 experiments
Procedure: (§1) In vitro antiproliferative activity against three human tumor cell lines, including gastric adenocarcinoma (SGC-7901), oral carcinoma (KB) and fibrosarcoma (HT-1080), was evaluated using the MTT assay with cis-platinum (Cpt) as the positive control.
(§2) The antiproliferative activity of the synthetic compounds was measured by 3-(4, 5- dimethylthiazol-2-yl)-2, 5-diphenyltetrazolium bromide (MTT) assay. Cells were seeded in 96-well plates (Corning, NY, USA) at a density of 8×10^3 per well. After 24 h of incubation, cells were treated with different concentrations (0.1, 0.3, 1, 3 and 10 μg/ml) of the EM-A dimers for the indicated time periods. Afterwards, MTT (Sigma, St. Louis, MO) solution [5.0 mg/ml in phosphate-buffered saline (PBS)] was added (20 μl/well) and incubated for another 4 h at 37°C. The purple formazan crystals were then dissolved in 100 μl dimethyl sulfoxide (DMSO). After 5 min, the plates were read on a plate microreader (TECANSPECTRA, Wetzlar, Germanay) at 490 nm. The IC50 values were obtained using the software of Dose–Effect Analysis with Microcomputers and were defined as concentration of drug causing 50% inhibition in absorbance compared with control cells. Assays were performed in triplicate from three independent experiments.

[2] = tested on: normal mouse fibroblast cells (L929); assay: MTT assay, toxicity against normal fibroblasts L929; type: cell-based; details: L929, 24 h of drug exposure
Procedure: as §2

[3] = tested on: gastric adenocarcinoma (SGC-7901) cells; assay: MTT antiproliferative assay, SGC-7901; type: cell-based, human; details: Homo sapiens, SGC-7901, 24 h of drug exposure, mean±SD of 3 experiments
Procedure: as §1, §2

[4] = tested on: oral carcinoma (KB) cells; assay: MTT antiproliferative assay, KB; type: cell-based, human; details: Homo sapiens, KB, 24 h of drug exposure, mean±SD of 3 experiments
Procedure: as §1, §2

| SMILES | IC50 [1] | IC50 [2] | IC50 [3] | IC50 [4] |
| --- | --- | --- | --- | --- |
| CC[C@H]1OC(=O)[C@H](C)[C@@H](O[C@H]2C[C@@](C)(OC)[C@@H](O)[C@H](C)O2)[C@H](C)[C@@H](O[C@@H]2O[C@H](C)C[C@H](N(C)C)[C@H]2O)[C@](C)(OC)C[C@@H](C)C(=O)[C@H](C)[C@@H](O)[C@]1(C)O [clarithromycin, reference compound] | > 100 µM | > 100 µM | > 100 µM | > 100 µM |
| CCC1OC(=O)C(C)C(O)C(C)C(OC2OC(C)CC(N(C)CC=CCN(C)C3CC(C)OC(OC4C(C)C(OC5CC(C)(OC)C(O)C(C)O5)C(C)C(=O)OC(CC)C(C)(O)C(O)C(C)C(=NO)C(C)CC4(C)OC)C3O)C2O)C(C)(OC)CC(C)C(=NO)C(C)C(O)C1(C)O (centres unmarked) [Compound 1j] | 23.7 ± 2.2 µM | > 100 µM | 30.6 ± 2.8 µM | 26.4 ± 2.4 µM |
